# According to patent publication US20260070945A1, “MACROCYCLIC IMMUNOMODULATORS” (Bristol-Myers Squibb Company, priority 2022, published 2026):
# *1 amine or outer side, *2 acyl side, *3 side chain or, on linkers, in order; H or OH if unused. Where a SMILES comes first, the peptide text is derived from it. Bridges are numbered along the chain shown (N, C = ends). [ ]: non-standard residue; d: D form. The star is where a group is joined. ξ: configuration not given here. Phe(4-COOH) = N[C@@H](Cc1ccc(C(=O)O)cc1)C(=O)O; Bip = N[C@@H](Cc1ccc(-c2ccccc2)cc1)C(=O)O; NH(CH2)14COOH = O=C(O)CCCCCCCCCCCCCCN*; Phe(3-Me) = Cc1cccc(C[C@H](N)C(=O)O)c1; γGlu = O=C(O)[C@H](CCC(=O)[*:2])N[*:1]; Val(3-OH) = CC(C)(O)[C@H](N)C(=O)O; aIle = CC[C@@H](C)[C@H](N)C(=O)O; hArg = N=C(N)NCCCC[C@H](N)C(=O)O; 4Pal = N[C@@H](Cc1ccncc1)C(=O)O; Aad = N[C@@H](CCCC(=O)O)C(=O)O; Cha = N[C@@H](CC1CCCCC1)C(=O)O; Ile(3ξ) = CCC(C)[C@H](N)C(=O)O; Chg = N[C@H](C(=O)O)C1CCCCC1; 12Ado = NCCCCCCCCCCCC(=O)O; hSer = N[C@@H](CCO)C(=O)O; Carboxymethyl = O=C(O)C*; NMeA = CN[C@@H](C)C(=O)O; Orn = NCCC[C@H](N)C(=O)O; Aun = NCCCCCCCCCCC(=O)O; Dab = NCC[C@H](N)C(=O)O; AEEA = NCCOCCOCC(=O)O
# Molecular target: T1, PD-1/PD-L1 interaction (PE-labeled human PD-L1-Ig binding to Jurkat cell line over-expressing human PD-1) (Homo sapiens, UniProt Q15116)
# T1 construct: expressed in transfected cells; host or cells: Jurkat
# Assay: Jurkat-PD-1 Cell Binding High-Content Screening Assay (CBA)
# Details: Jurkat-hPD-1 cells, PE-labeled PD-L1-Ig 20 nM final; read-out: Jurkat HPD1 PDL1 IC50
# Procedure, shortened: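 In this imaging assay, cells in 10% FCS medium see compound for 2 h at 37 °C and then labeled ligand at 20 nM final for 1 h. Paraformaldehyde fixation, Hoechst 33342 staining and dPBS washes precede image capture.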
# T1 sequence (Q15116 25-288): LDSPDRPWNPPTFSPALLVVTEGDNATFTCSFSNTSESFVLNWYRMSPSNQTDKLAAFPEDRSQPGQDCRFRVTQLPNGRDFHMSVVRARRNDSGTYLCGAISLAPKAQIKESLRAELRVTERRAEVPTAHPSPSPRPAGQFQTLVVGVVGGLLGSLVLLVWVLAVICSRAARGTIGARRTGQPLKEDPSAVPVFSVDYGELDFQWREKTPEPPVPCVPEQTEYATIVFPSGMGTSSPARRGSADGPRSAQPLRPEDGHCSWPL
row,IC50,Compound
1,0.0167 µM,CC(C)C[C@@H]1NC(=O)[C@H](Cc2c[nH]c3ccccc23)NC(=O)[C@H](CC(=O)O)NC(=O)[C@H](Cc2ccc(C(=O)O)cc2)NC(=O)[C@H](Cc2ccc(OCC(=O)O)cc2)NC(=O)CSC[C@@H](C(=O)N[C@@H](CCCN)C(=O)NCCOCCOCC(=O)NCCCCCCCCCCC(=O)O)NC(=O)[C@H](CCCC(=O)O)NC(=O)[C@H](C(C)C)NC(=O)[C@H](CC2CCCCC2)NC(=O)[C@H](CCN)NC(=O)[C@@H](CC(C)C)NC(=O)[C@H](C)N(C)C(=O)[C@H](C(C)C)NC(=O)[C@H](Cc2ccc(-c3ccccc3)cc2)NC1=O [Example 2153] ({CH2CO}-Y(Carboxymethyl)[Phe(4-COOH)]DWL[Bip]V[NMeA][dL][Dab][Cha]V[Aad]C[Orn][AEEA][Aun]-OH; thioether N-14)
2,0.0094 µM,CC[C@@H](C)[C@@H]1NC(=O)[C@H](Cc2ccc(-c3ccccc3)cc2)NC(=O)[C@H](C(C)C)NC(=O)[C@H](Cc2c[nH]c3ccccc23)NC(=O)[C@H](CC(=O)O)NC(=O)[C@H](Cc2ccc(OCC(=O)O)cc2)NC(=O)[C@H](Cc2ccncc2)NC(=O)CSC[C@@H](C(=O)N[C@H](CC(N)=O)C(=O)NCCOCCOCC(=O)N[C@@H](CCC(=O)NCCOCCOCC(=O)N[C@@H](CCC(=O)NCCOCCOCC(=O)N[C@@H](CCCN)C(=O)NCCCCCCCCCCC(=O)O)C(=O)O)C(=O)O)NC(=O)[C@H](CO)NC(=O)[C@H](C(C)C)NC(=O)[C@H](CC2CCCCC2)NC(=O)[C@H](CCN)NC(=O)[C@@H](CC(C)C)NC(=O)[C@H](C)N(C)C1=O [Example 2015] ({CH2CO}-[4Pal]Y(Carboxymethyl)DWV[Bip][aIle][NMeA][dL][Dab][Cha]VSC[dN][AEEA][γGlu][AEEA][γGlu][AEEA][Orn][Aun]-OH; thioether N-14)
3,0.0296 µM,CC(C)C[C@H]1NC(=O)[C@H](C)N(C)C(=O)[C@H](C(C)C)NC(=O)[C@H](Cc2ccc(-c3ccccc3)cc2)NC(=O)[C@H](C(C)C)NC(=O)[C@H](Cc2c[nH]c3ccccc23)NC(=O)[C@H](CC(=O)O)NC(=O)[C@H](CCCCNC(=N)N)NC(=O)[C@H](Cc2ccc(OCC(=O)O)cc2)NC(=O)CSC[C@@H](C(=O)N[C@@H](CCCCN)C(=O)NCCOCCOCC(=O)NCCCCCCCCCCC(=O)O)NC(=O)[C@H](CO)NC(=O)[C@H](C(C)C)NC(=O)[C@H](CC2CCCCC2)NC(=O)[C@H](CCN)NC1=O [Example 2103] ({CH2CO}-Y(Carboxymethyl)[hArg]DWV[Bip]V[NMeA][dL][Dab][Cha]VSCK[AEEA][Aun]-OH; thioether N-14)

# Further lines, the molecule ahead of its results:
row,Compound,IC50
1,CC(C)C[C@@H]1NC(=O)[C@H](Cc2c[nH]c3ccccc23)NC(=O)[C@H](CC(=O)O)NC(=O)[C@H](Cc2ccc(C(=O)O)cc2)NC(=O)[C@H](Cc2ccc(OCC(=O)O)cc2)NC(=O)CSC[C@@H](C(=O)NCCOCCOCC(=O)NCCCCCCCCCCC(=O)O)NC(=O)[C@H](CCO)NC(=O)[C@H](C(C)C)NC(=O)[C@H](CC2CCCCC2)NC(=O)[C@H](CCN)NC(=O)[C@@H](CC(C)C)NC(=O)[C@H](C)N(C)C(=O)[C@H](CCC(N)=O)NC(=O)[C@H](Cc2ccc(-c3ccccc3)cc2)NC1=O [Example 2244] ({CH2CO}-Y(Carboxymethyl)[Phe(4-COOH)]DWL[Bip]Q[NMeA][dL][Dab][Cha]V[hSer]C[AEEA][Aun]-OH; thioether N-14),0.0386 µM
2,CC(C)C[C@H]1NC(=O)[C@H](C)N(C)C(=O)[C@H](C(C)C)NC(=O)[C@H](Cc2ccc(-c3ccccc3)cc2)NC(=O)[C@H](C2CCCCC2)NC(=O)[C@H](Cc2c[nH]c3ccccc23)NC(=O)[C@H](CC(=O)O)NC(=O)[C@H](Cc2ccc(OCC(=O)O)cc2)NC(=O)[C@H](Cc2ccncc2)NC(=O)CSC[C@@H](C(=O)N[C@@H](CCCCN)C(=O)NCCOCCOCC(=O)NCCCCCCCCCCC(=O)O)NC(=O)[C@H](CO)NC(=O)[C@H](C(C)C)NC(=O)[C@H](CC2CCCCC2)NC(=O)[C@H](CC(=O)O)NC1=O [Example 2090] ({CH2CO}-[4Pal]Y(Carboxymethyl)DW[Chg][Bip]V[NMeA][dL]D[Cha]VSCK[AEEA][Aun]-OH; thioether N-14),0.0482 µM
3,CC(=O)NCCCC[C@@H]1NC(=O)[C@H](Cc2ccc(-c3ccccc3)cc2)NC(=O)[C@H](C(C)C)NC(=O)[C@H](Cc2cccc(C)c2)NC(=O)[C@H](CC(=O)O)NC(=O)[C@H](Cc2ccc(OCC(=O)O)cc2)NC(=O)[C@H](Cc2ccc(OCC(=O)O)cc2)NC(=O)CSC[C@@H](C(=O)NCCOCCOCC(=O)NCCCCCCCCCCC(=O)O)NC(=O)[C@H](CCO)NC(=O)[C@H](C(C)C)NC(=O)[C@H](CC2CCCCC2)NC(=O)[C@H](CCN)NC(=O)[C@@H](CC(C)C)NC(=O)[C@H](C)N(C)C1=O [Example 2222] ({CH2CO}-Y(Carboxymethyl)Y(Carboxymethyl)D[Phe(3-Me)]V[Bip]K(Ac)[NMeA][dL][Dab][Cha]V[hSer]C[AEEA][Aun]-OH; thioether N-14),0.0106 µM
4,Cc1cccc(C[C@@H]2NC(=O)[C@H](CC(=O)O)NC(=O)[C@H](Cc3ccc(OCC(=O)O)cc3)NC(=O)[C@H]([C@@H](C)O)NC(=O)CSC[C@@H](C(=O)N[C@@H](CCN)C(=O)NCCOCCOCC(=O)NCCCCCCCCCCC(=O)O)NC(=O)[C@H](CCCN)NC(=O)[C@H](C(C)C)NC(=O)[C@H](CC3CCCCC3)NC(=O)[C@H](CC(N)=O)NC(=O)[C@@H](CC(C)C)NC(=O)[C@H](C)N(C)C(=O)[C@H](Cc3ccc(OCC(=O)O)cc3)NC(=O)[C@H](Cc3ccc(-c4ccccc4)cc3)NC(=O)[C@H](Cc3ccc(OCC(=O)O)cc3)NC2=O)c1 [Example 1363] ({CH2CO}-TY(Carboxymethyl)D[Phe(3-Me)]Y(Carboxymethyl)[Bip]Y(Carboxymethyl)[NMeA][dL]N[Cha]V[Orn]C[Dab][AEEA][Aun]-OH; thioether N-14),0.0253 µM

# Same assay, conditions: PE-labeled PD-L1-Ig 20 nM final, Jurkat-hPD-1 cells; read-out: Jurkat HPD1 PDL1 IC50
row,IC50,Compound
1,0.207 µM,CCC(C)[C@@H]1NC(=O)[C@H](Cc2ccc(-c3ccccc3)cc2)NC(=O)[C@H](C(C)C)NC(=O)[C@H](Cc2c[nH]c3ccccc23)NC(=O)[C@H](CC(=O)O)NC(=O)[C@H](Cc2ccc(C(=O)O)cc2)NC(=O)[C@H](Cc2cnc[nH]2)NC(=O)CSC[C@@H](C(=O)N[C@@H](CCN)C(=O)NCCOCCOCC(=O)N[C@@H](CCC(=O)NCCCCCCCCCCCCCCC(=O)O)C(=O)O)NC(=O)[C@H](CCC(=O)O)NC(=O)[C@H](C(C)(C)O)NC(=O)[C@H](CC2CCCCC2)NC(=O)[C@H](CCN)NC(=O)[C@@H](CC(C)C)NC(=O)[C@H](C)N(C)C1=O (stereo partly drawn) [Example 2633] ({CH2CO}-H[Phe(4-COOH)]DWV[Bip][Ile(3ξ)][NMeA][dL][Dab][Cha][Val(3-OH)]EC[Dab][AEEA]E(NH(CH2)14COOH)-OH; thioether N-14)
2,0.257 µM,Cc1cccc(C[C@@H]2NC(=O)[C@H](CC(=O)O)NC(=O)[C@H](Cc3ccc(OCC(=O)O)cc3)NC(=O)[C@H]([C@@H](C)O)NC(=O)CSC[C@@H](C(=O)N[C@@H](CCC(=O)O)C(=O)NCCOCCOCC(=O)NCCCCCCCCCCCC(=O)O)NC(=O)CNC(=O)[C@H](C(C)C)NC(=O)[C@H](CC3CCCCC3)NC(=O)[C@@H](CCC(=O)O)NC(=O)[C@@H](CC(C)C)NC(=O)[C@H](C)N(C)C(=O)[C@H](Cc3ccc(OCC(=O)O)cc3)NC(=O)[C@H](Cc3ccc(-c4ccccc4)cc3)NC(=O)[C@H](Cc3ccc(OCC(=O)O)cc3)NC2=O)c1 [Example 2686] ({CH2CO}-TY(Carboxymethyl)D[Phe(3-Me)]Y(Carboxymethyl)[Bip]Y(Carboxymethyl)[NMeA][dL][dE][Cha]VGCE[AEEA][12Ado]-OH; thioether N-14)
